Article PMC9368981, “The γ-Core Motif Peptides of AMPs from Grasses Display Inhibitory Activity against Human and Plant Pathogens” (International Journal of Molecular Sciences, 2022)
Where a SMILES comes first, the peptide text is derived from it.

Experiments:
[1] = tested on: Pseudomonas savastanoi pv. savastanoi VKM B-1546; type: cell-based; details: 300 µM peptide; 30 °C, 24 h, absorbance 594 nm; vs control without peptide; triplicate, mean
Experimental: (§1) The antimicrobial activity of synthetic peptides was tested against a panel of human and plant pathogens. Among them were the yeasts Candida albicans VKM Y-2994 and Cryptococcus neoformans VKM Y-2755, the plant pathogenic bacteria Clavibacter michiganensis subsp. michiganensis VKM Ac-1403, Pseudomonas savastanoi pv. savastanoi VKM B-1546 and Pectobacterium carotovorum subsp. carotovorum VKM B-1247, and four Fusarium species (F. oxysporum VKM F-137, F. culmorum VKM F-2303, F. solani VKM F-142 and F. verticillioides VKM F-670), which cause diseases in plants and humans. The antimicrobial activity was first measured at the peptide concentration of 300 µM (Figure 3).
(§2) The antimicrobial activity of synthetic peptides was tested against the yeasts Candida albicans VKM Y-2994 and Cryptococcus neoformans VKM Y-2755, the bacteria Pseudomonas savastanoi pv. savastanoi VKM B-1546, Pectobacterium carotovorum subsp. carotovorum VKM B-1247 and Clavibacter michiganensis subsp. michiganensis VKM Ac-1403, and four Fusarium species: F. culmorum VKM F-2303, F. oxysporum VKM F-137, F. solani VKM F-142 and F. verticillioides VKM F-670. All cultures were obtained from the All-Russian Collection of Microorganisms (VKM). The details of the production and storage of cultures of microorganisms used in this study are described at the VKM Home page. Antimicrobial assays were accomplished according to the procedure described earlier. In short, yeasts were grown on the YPD-P medium and the bacteria P. carotovorum and Cl. michiganensis were cultured on a modified YPD-P medium. The Fusarium fungi were grown on potato dextrose agar at 25 °C for 7–8 days, and spores were washed off from the surface of the mycelia with sterile, distilled water. The antimicrobial activity of the peptides was measured in immunoassay microtiter plates according to the protocol of Broekaert et al.. With yeasts and bacteria, each well contained 10 µL of the tested peptide solution (final concentrations of 10–300 µM) in water, 80 µL of the medium and 10 µL of the microbial suspension. The plates were incubated at 30 °C for 24 h, and the absorbance of the suspension was measured on an Efos 9305 spectrophotometer (Sapphire, Moscow, Russia) at 594 nm. For Fusarium species, the wells of a microtiter plate were filled with 90 µL of the fungal spore suspension in half-strength potato dextrose broth at a concentration of 2000–3000 spores in 100 µL and 10 µL of aqueous solutions of peptides at final concentrations of 10–300 µM. After 38 h of incubation, the absorbance was recorded at 595 nm on a FilterMax F5 Multi-Mode Microplate Reader (Molecular Devices, San Jose, CA, USA). Antimicrobial activity is expressed in IC50 values, which show the concentration necessary for 50% inhibition of the pathogen growth; this was determined from a graph showing the activity dependence on peptide concentration.
(§3) For each pathogen, experiments on the peptide antimicrobial activity evaluation were carried out in triplicate per treatment. Mean values, standard deviations (SD), and the significance of differences (p ≤ 0.05) of the means between treatments and controls (t-test for independent variables) were determined using STATISTICA v. 6.1 software (StatSoft Inc., Tulsa, OK, USA).

[2] = tested on: Cryptococcus neoformans VKM Y-2755; type: cell-based; details: inhibition curves (Figure 4)
Experimental: as §1, §2, §3

[3] = tested on: Clavibacter michiganensis subsp. michiganensis VKM Ac-1403; experiment: Growth inhibition of Cl. michiganensis in microtiter plates; type: cell-based; details: inhibition curves (Figure 4)
Experimental: as §1
The antimicrobial activity of synthetic peptides was tested against the yeasts Candida albicans VKM Y-2994 and Cryptococcus neoformans VKM Y-2755, the bacteria Pseudomonas savastanoi pv. savastanoi VKM B-1546, Pectobacterium carotovorum subsp. carotovorum VKM B-1247 and Clavibacter michiganensis subsp. michiganensis VKM Ac-1403, and four Fusarium species: F. culmorum VKM F-2303, F. oxysporum VKM F-137, F. solani VKM F-142 and F. verticillioides VKM F-670. All cultures were obtained from the All-Russian Collection of Microorganisms (VKM). […] The antimicrobial activity of the peptides was measured in immunoassay microtiter plates according to the protocol of Broekaert et al.. […] The plates were incubated at 30 °C for 24 h, and the absorbance of the suspension was measured on an Efos 9305 spectrophotometer (Sapphire, Moscow, Russia) at 594 nm. […] After 38 h of incubation, the absorbance was recorded at 595 nm on a FilterMax F5 Multi-Mode Microplate Reader (Molecular Devices, San Jose, CA, USA). […]
For each pathogen, experiments on the peptide antimicrobial activity evaluation were carried out in triplicate per treatment. Mean values, standard deviations (SD), and the significance of differences (p ≤ 0.05) of the means between treatments and controls (t-test for independent variables) were determined using STATISTICA v. […]

Cr. neoformans cells = experiment: Propidium iodide staining, fluorescence microscopy; type: cell-based, Cryptococcus neoformans; details: peptide 300 µM, 30 °C, 1 h, 0.03 mM PI 15 min
Experimental: (§4) Their ability to disturb the integrity of pathogen membranes was assayed by staining with propidium iodide of C. albicans and Cr. neoformans cells preliminarily incubated with the peptides. The results were visualized by fluorescent microscopy and quantified by flow cytometry (Figure 5, Figure 6 and Figure 7).
(§5) Staining of yeast cells with propidium iodide in the presence of the γ-core peptides was carried out according to the protocol described earlier. C. albicans or Cr. neoformans cells (24 h culture in YPD-P at a cell concentration of 2 × 10^8/mL) were incubated with the peptide at a concentration of 300 µM at 30 °C for 1 h. After incubation, 1 mL of the cells was stained with 0.03 mM propidium iodide (Sigma, St. Louis, MO, USA). The staining proceeded for 15 min at 30 °C. The fluorescence was recorded on an AXIO Imager A1 fluorescence microscope (ZEISS, Göttingen, Germany) using a Zeiss filter set 56 HE.

C. albicans cells = experiment: Propidium iodide staining, fluorescence microscopy; type: cell-based, Candida albicans; details: peptide 300 µM, 30 °C, 1 h, 0.03 mM PI 15 min
Experimental: as §4, §5

Row | Compound | Pathogen inhibition, % (Ps. savastanoi) [1] | Inhibition of Cr. neoformans at 50 µM ([2]; peptide 50 µM) | Inhibition of Cl. michiganensis at 100 µM ([3]; peptide 100 µM) | Membrane permeabilization of Cr. neoformans cells (PI staining) (Cr. neoformans cells) | Membrane permeabilization of C. albicans cells (PI staining) (C. albicans cells) | Inhibition of Cr. neoformans at the highest tested concentration ([2]; highest tested concentration (300 µM)) | Inhibition of Cl. michiganensis at the highest tested concentration ([3]; highest tested concentration of 300 µM)
1 | C[C@H](NC(=O)[C@H](CCCNC(=N)N)NC(=O)[C@H](CCCCN)NC(=O)[C@H](CS)NC(=O)[C@H](Cc1ccccc1)NC(=O)[C@H](CS)NC(=O)[C@H](CCCCN)NC(=O)[C@H](CCCNC(=N)N)NC(=O)[C@H](C)NC(=O)[C@H](Cc1ccccc1)NC(=O)[C@H](CC(N)=O)NC(=O)[C@H](Cc1c[nH]cn1)NC(=O)[C@@H](NC(=O)[C@H](Cc1c[nH]cn1)NC(=O)[C@H](CS)NC(=O)[C@H](CCC(=O)O)NC(=O)CN)[C@@H](C)O)C(=O)N[C@@H](CS)C(=O)O [DEFL1-36_65-82] (H-GECHTHNFARKCFCKRAC-OH; N-terminus and C-terminus assumed) | failed to suppress | complete inhibition | complete inhibition |  |  |  | 
2 | C[C@H](N)C(=O)N[C@@H](CS)C(=O)N1CCC[C@H]1C(=O)NCC(=O)N[C@@H](C)C(=O)N[C@@H](CS)C(=O)N1CCC[C@H]1C(=O)N[C@@H](C)C(=O)N1CCC[C@H]1C(=O)NCC(=O)NCC(=O)N[C@@H](CO)C(=O)N[C@@H](Cc1ccc(O)cc1)C(=O)N[C@H](C(=O)N[C@@H](CC(N)=O)C(=O)N[C@@H](CCCNC(=N)N)C(=O)NCC(=O)N[C@@H](CS)C(=O)N[C@@H](CCC(N)=O)C(=O)N[C@@H](CCCCN)C(=O)N[C@@H](CCCCN)C(=O)N[C@@H](Cc1ccc(O)cc1)C(=O)N[C@@H](CCC(N)=O)C(=O)N[C@@H](CS)C(=O)N[C@@H](CCCNC(=N)N)C(=O)O)[C@@H](C)O [DEFL4-20_86-110] (H-ACPGACPAPGGSYTNRGCQKKYQCR-OH; N-terminus and C-terminus assumed) |  |  |  | induced membrane permeabilization | induced membrane permeabilization | 95% | 91%
